Laboratory results: patent publication US8748436B2, “Carboxylic acid derivatives having a 2,5,7-substituted oxazolopyrimidine ring” (Sanofi, priority 2010, dated 2014)

Biological target: T1, human Edg-1 receptor (Homo sapiens, UniProt P21453)
T1 construct: FLAG (N); expressed in transfected cells; membrane preparation
Experiment: GTP-γ-S assay using human Edg-1 receptors (scintillation proximity assay, CHO Flp-In cell membrane preparation)
Format: biochemical
Settings: test compound at 10 μM; high control 10 μM S1P regarded as 100% activation; [35S]GTP-γ-S binding, triplicate; read-out: % Activation (Edg-1 receptor activation in percent of the activation by 10 μM S1P)
Text: A) GTP-γ-S Assay Using Human Edg-1 Receptors
In order to determine the Edg-1 receptor activation by the compounds of the invention, a GTP-γ-S (guanosine 5′-[thio]triphosphate) assay for G-protein coupled receptor binding based on the scintillation proximity assay principle was used, employing a cell membrane preparation from a CHO Flp-In cell line which constitutively overexpresses the human Edg-1 receptor.
The Flp-In™ expression system (Invitrogen, cat. no. K6010-01) allows the generation of stable mammalian cell lines into which the gene of interest has been integrated through homologous recombination at a specific genomic location called Flp Recombination Target (FRT) site by means of a Flp recombinase encoded by the pOG44 expression plasmid. The integration of the pcDNA5/FRT expression construct into the Flp-In host cell line genome results in the transcription of the gene of interest. The stably transfected cells become hygromycin-resistant.
One day prior to transfection, 200 000 Flp-In-CHO cells were seeded in Ham F-12 medium (Invitrogen, cat. no. 31765) supplemented with 10% fetal calf serum (FCS; Perbio Science, cat. no. SH30068.03) in a 6-well plate and incubated at 37° C./5% CO2 overnight. Using the FuGENE® 6 transfection reagent (Roche, cat. no. 11988387001), cells were cotransfected with the Flp recombinase expression plasmid pOG44 and a modified plasmid additionally containing the edg-1 gene (accession no. NM_001400) termed as pcDNA5-FRT-TO_nFLAG_DEST-EDG-1 with a 9:1 ratio. To obtain the modified pcDNA5-FRT-TO_nFLAG_DEST plasmid, the Invitrogen plasmid pcDNA5/FRT/TO (Invitrogen, cat. no. V6520-20) was adapted to the Gateway® (Invitrogen) cloning system by inserting a Gateway cassette containing attR recombination sites flanking a ccdB gene and a chloramphenicol-resistance gene (Gateway conversion system, Invitrogen, cat. no. 11828-029). In addition a FLAG tag epitope was added before the 5′ att recombination site to allow recombinant expression of N-terminally FLAG-tagged proteins.
For the transfection of one well, 1.08 μg of pOG44 and 0.12 μg of pcDNA5-FRT-TO_nFLAG_DEST-EDG-1 were mixed to 100 μl of serum-free Ham F-12 medium containing 6 μl of FuGENE® 6 transfection reagent. After 20 min of incubation, the transfection reagent/DNA complex was distributed dropwise on the cells. The cells were incubated for 24 h at 37° C. Then the cells from 3 wells were transferred to a T75 flask (Greiner Cellstar®, cat. no. 658175) containing Ham F-12 medium supplemented with 10% of FCS but without antibiotic and were incubated another 24 h. 48 h after transfection, the medium was replaced by selection medium (Ham F-12 supplemented with 10% of FCS and 300 μg/ml of hygromycin B (Invitrogen, cat. no. 10687-010)). The medium was exchanged every 2 to 3 days until a resistant population of cells had grown. […] After 2 weeks of selection, the cells were transferred into T175 flasks (Greiner Cellstar®, cat. no. 660175) and cultivated for batch production. Cells were harvested from the culture flasks by short treatment (2 to 5 min) with Accutase (PAA, cat. no. L11-007), resuspended in selection medium (see above) and centrifuged at 200×g for 5 min. The cells were resuspended in a mixture of 90% of FCS and 10% of dimethylsulfoxide and stored frozen in liquid nitrogen.
A membrane preparation was obtained by standard methods from the afore-described CHO Flp-In cell line constitutively overexpressing the human Edg-1 receptor. Briefly, the cryopreserved cells were taken in culture and grown until confluency in T175 cell culture flasks (Becton Dickinson, cat. no. 35 5001). […]

T1 sequence (P21453 whole entry): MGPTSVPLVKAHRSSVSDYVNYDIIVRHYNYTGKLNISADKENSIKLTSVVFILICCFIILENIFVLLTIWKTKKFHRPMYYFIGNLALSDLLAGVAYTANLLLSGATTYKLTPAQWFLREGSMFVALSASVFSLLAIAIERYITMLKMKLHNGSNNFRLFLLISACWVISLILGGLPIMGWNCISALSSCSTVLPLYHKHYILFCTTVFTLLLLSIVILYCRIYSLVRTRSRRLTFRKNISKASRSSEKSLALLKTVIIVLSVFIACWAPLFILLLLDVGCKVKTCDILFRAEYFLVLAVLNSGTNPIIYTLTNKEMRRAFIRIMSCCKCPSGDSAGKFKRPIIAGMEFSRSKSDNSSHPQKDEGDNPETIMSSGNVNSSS

activation at 10 µM | SMILES
91% | CCCOc1nc(Oc2cc(F)ccc2C)nc2oc(-c3cc(C)c(OCC(=O)O)c(C)c3)nc12 [Example 5, {4-[5-(5-fluoro-2-methyl-phenoxy)-7-propoxy-oxazolo[5,4-d]pyrimidin-2-yl]-2,6-dimethyl-phenoxy}-acetic acid]
84% | CCCOc1nc(Oc2ccc(F)cc2F)nc2oc(-c3cc(C)c(OCC(=O)O)c(C)c3)nc12 [Example 8, {4-[5-(2,4-difluoro-phenoxy)-7-propoxy-oxazolo[5,4-d]pyrimidin-2-yl]-2,6-dimethyl-phenoxy}-acetic acid]
103% | CCCOc1nc(Oc2cccc(F)c2F)nc2oc(-c3cc(C)c(OCC(=O)O)c(C)c3)nc12 [Example 49, {4-[5-(2,3-difluorophenoxy)-7-propoxy-oxazolo[5,4-d]pyrimidin-2-yl]-2,6-dimethylphenoxy}-acetic acid]
55% | CCOc1nc(Oc2cccc(Cl)c2)nc2oc(-c3cc(C)c(OCC(=O)O)c(C)c3)nc12 [Example 38, {4-[5-(3-chlorophenoxy)-7-ethoxy-oxazolo[5,4-d]pyrimidin-2-yl]-2,6-dimethyl-phenoxy}-acetic acid]
55% | CCCOc1nc(Oc2ccc3c(c2)CCC3)nc2oc(-c3cc(C)c(OCC(=O)O)c(C)c3)nc12 [Example 53, {4-[5-(indan-5-yloxy)-7-propoxy-oxazolo[5,4-d]pyrimidin-2-yl]-2,6-dimethylphenoxy}-acetic acid]
98% | CCCOc1nc(OCCC2CC2)nc2oc(-c3cc(C)c(OCC(=O)O)c(C)c3)nc12 [Example 23, {4-[5-(2-cyclopropyl-ethoxy)-7-propoxy-oxazolo[5,4-d]pyrimidin-2-yl]-2,6-dimethyl-phenoxy}-acetic acid]
59% | CCCOc1nc(Oc2cc(C(F)(F)F)ccc2F)nc2oc(-c3cc(C)c(OCC(=O)O)c(C)c3)nc12 [Example 73, {4-[5-(2-fluoro-5-trifluoromethylphenoxy)-7-propoxy-oxazolo[5,4-d]pyrimidin-2-yl]-2,6-dimethylphenoxy}-acetic acid]
102% | CCCOc1nc(Oc2ccc3ncsc3c2)nc2oc(-c3cc(C)c(OCC(=O)O)c(C)c3)nc12 [Example 66, {4-[5-(benzothiazol-6-yloxy)-7-propoxy-oxazolo[5,4-d]pyrimidin-2-yl]-2,6-dimethylphenoxy}-acetic acid]
116% | CCOc1nc(Oc2cc(F)ccc2C)nc2oc(-c3cc(C)c(OCC(=O)O)c(C)c3)nc12 [Example 36, {4-[7-ethoxy-5-(5-fluoro-2-methylphenoxy)-oxazolo[5,4-d]pyrimidin-2-yl]-2,6-dimethyl-phenoxy}-acetic acid]
117% | CCCOc1nc(Oc2cncc(F)c2)nc2oc(-c3cc(C)c(OCC(=O)O)c(C)c3)nc12 [Example 37, {4-[5-(5-fluoropyridin-3-yloxy)-7-propoxy-oxazolo[5,4-d]pyrimidin-2-yl]-2,6-dimethyl-phenoxy}-acetic acid]
90% | CCCOc1nc(OC2CCCC2)nc2oc(-c3cc(C)c(OCC(=O)O)c(C)c3)nc12 [Example 2, [4-(5-Cyclopentyloxy-7-propoxy-oxazolo[5,4-d]pyrimidin-2-yl)-2,6-dimethyl-phenoxy]-acetic acid]
73% | CCCOc1nc(Oc2cccc(OC)c2)nc2oc(-c3cc(C)c(OCC(=O)O)c(C)c3)nc12 [Example 41, {4-[5-(3-methoxyphenoxy)-7-propoxy-oxazolo[5,4-d]pyrimidin-2-yl]-2,6-dimethylphenoxy}-acetic acid]
76% | CCCOc1nc(OCC2CCCCC2)nc2oc(-c3cc(C)c(OCC(=O)O)c(C)c3)nc12 [Example 11, [4-(5-cyclohexylmethoxy-7-propoxy-oxazolo[5,4-d]pyrimidin-2-yl)-2,6-dimethyl-phenoxy]-acetic acid]
99% | CCCOc1nc(OCC2CCC2)nc2oc(-c3cc(C)c(OCC(=O)O)c(C)c3)nc12 [Example 13, [4-(5-cyclobutylmethoxy-7-propoxy-oxazolo[5,4-d]pyrimidin-2-yl)-2,6-dimethyl-phenoxy]-acetic acid]
86% | CCCOc1nc(Oc2cc(F)cc(F)c2)nc2oc(-c3cc(C)c(OCC(=O)O)c(C)c3)nc12 [Example 50, {4-[5-(3,5-difluorophenoxy)-7-propoxy-oxazolo[5,4-d]pyrimidin-2-yl]-2,6-dimethyl-phenoxy}-acetic acid]
56% | CCCOc1nc(Oc2ccc(F)c(Cl)c2)nc2oc(-c3cc(C)c(OCC(=O)O)c(C)c3)nc12 [Example 62, {4-[5-(3-chloro-4-fluorophenoxy)-7-propoxy-oxazolo[5,4-d]pyrimidin-2-yl]-2,6-dimethylphenoxy}-acetic acid]
73% | CCCOc1nc(Oc2ccc(C)c(F)c2)nc2oc(-c3cc(C)c(OCC(=O)O)c(C)c3)nc12 [Example 6, {4-[5-(3-fluoro-4-methyl-phenoxy)-7-propoxy-oxazolo[5,4-d]pyrimidin-2-yl]-2,6-dimethyl-phenoxy}-acetic acid]
89% | CCCOc1nc(Oc2ccc3sc(C)nc3c2)nc2oc(-c3cc(C)c(OCC(=O)O)c(C)c3)nc12 [Example 70, {2,6-dimethyl-4-[5-(2-methylbenzothiazol-5-yloxy)-7-propoxy-oxazolo[5,4-d]pyrimidin-2-yl]-phenoxy}-acetic acid]
54% | CCCOc1nc(Oc2cccc3c2CCC3)nc2oc(-c3cc(C)c(OCC(=O)O)c(C)c3)nc12 [Example 52, {4-[5-(indan-4-yloxy)-7-propoxy-oxazolo[5,4-d]pyrimidin-2-yl]-2,6-dimethylphenoxy}-acetic acid]
127% | CCOc1nc(Oc2ccccc2F)nc2oc(-c3cc(C)c(OCC(=O)O)c(C)c3)nc12 [Example 26, {4-[7-ethoxy-5-(2-fluorophenoxy)-oxazolo[5,4-d]pyrimidin-2-yl]-2,6-dimethyl-phenoxy}-acetic acid]
48% | CCCOc1nc(Oc2cccc(C(F)(F)F)c2F)nc2oc(-c3cc(C)c(OCC(=O)O)c(C)c3)nc12 [Example 72, {4-[5-(2-fluoro-3-trifluoromethylphenoxy)-7-propoxy-oxazolo[5,4-d]pyrimidin-2-yl]-2,6-dimethyl-phenoxy}-acetic acid]
86% | CCCOc1nc(Oc2ccccc2Cl)nc2oc(-c3cc(C)c(OCC(=O)O)c(C)c3)nc12 [Example 47, {4-[5-(2-chlorophenoxy)-7-propoxy-oxazolo[5,4-d]pyrimidin-2-yl]-2,6-dimethylphenoxy}-acetic acid]
77% | CCCOc1nc(Oc2cc(C(F)(F)F)ccc2Cl)nc2oc(-c3cc(C)c(OCC(=O)O)c(C)c3)nc12 [Example 77, {4-[5-(2-chloro-5-trifluoromethylphenoxy)-7-propoxy-oxazolo[5,4-d]pyrimidin-2-yl]-2,6-dimethyl-phenoxy}-acetic acid]

SMILES | activation at 10 µM
CCCOc1nc(OCCC(C)C)nc2oc(-c3cc(C)c(OCC(=O)O)c(C)c3)nc12 [Example 22, {2,6-dimethyl-4-[5-(3-methyl-butoxy)-7-propoxy-oxazolo[5,4-d]pyrimidin-2-yl]-phenoxy}-acetic acid] | 92%
CCCOc1nc(OC2CCC2)nc2oc(-c3cc(C)c(OCC(=O)O)c(C)c3)nc12 [Example 14, [4-(5-cyclobutoxy-7-propoxy-oxazolo[5,4-d]pyrimidin-2-yl)-2,6-dimethyl-phenoxy]-acetic acid] | 88%
